# Test results: US9469615B2, “Quinoxalines and AZA-quinoxalines as CRTH2 receptor modulators” (Merck Sharp & Dohme Corp., priority 2010, dated 2016)
# Biological target: T1, hCRTH2 (Homo sapiens, UniProt Q9Y5Y4)
# T1 construct: expressed in transfected cells; host or cells: HEK (human embryonic kidney) cells expressing hCRTH2; membrane preparation
# T1 sequence (Q9Y5Y4 1-395): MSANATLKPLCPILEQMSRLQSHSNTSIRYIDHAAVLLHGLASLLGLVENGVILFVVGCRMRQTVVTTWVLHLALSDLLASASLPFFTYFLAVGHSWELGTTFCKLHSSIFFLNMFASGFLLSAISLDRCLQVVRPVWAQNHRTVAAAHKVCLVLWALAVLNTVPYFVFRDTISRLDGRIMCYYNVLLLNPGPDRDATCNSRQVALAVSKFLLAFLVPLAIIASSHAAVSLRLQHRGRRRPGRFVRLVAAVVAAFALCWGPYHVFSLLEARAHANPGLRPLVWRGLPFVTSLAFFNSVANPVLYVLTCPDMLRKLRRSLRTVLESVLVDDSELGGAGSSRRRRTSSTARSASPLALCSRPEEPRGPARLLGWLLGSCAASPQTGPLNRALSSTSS
# Assay: Radioligand binding assay ([3H]PGD2 competition, HEK-hCRTH2 membranes)
# Conditions: [3H]PGD2 binding, rated A-E (Table A)
# Procedure, shortened: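 Competition binding with 3.0 nM [3H]PGD2 and 8-20 μg HEK-hCRTH2 membrane protein in 50 mM Tris-HCl pH 7.4, 1 mM EDTA, 2 mM MnCl2, 1% Me2SO, 60 min at room temperature. Nonspecific binding defined with 10 μM PGD2; bound radioactivity counted after filtration.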
row,Ki [nM],SMILES
1,2.1 to 20,"O=C(O)Cc1cccc(CCc2nc3cc(C(=O)N4CCC(c5ccccc5)CC4)ccc3nc2-c2ccc(Cl)cc2)c1 [compound 19, 2-(3-(2-(3-(4-chlorophenyl)-7-(4-phenylpiperidine-1-carbonyl)quinoxalin-2-yl)ethyl)phenyl)acetic acid]"
2,0.1 to 2,"C[C@H](c1ccccc1)N(C)C(=O)c1ccc2nc(-c3ccc(F)cc3)c(CCCCC(=O)O)nc2c1 [compound 21, (R)-5-(3-(4-fluorophenyl)-7-(methyl(1-phenylethyl)carbamoyl)quinoxalin-2-yl)pentanoic acid]"
3,20.1 to 200,O=C(NCc1cccc(Cl)c1)c1ccc2nc(-c3ccccc3)c(CCCc3nnn[nH]3)nc2c1 [compound 22]
4,20.1 to 200,"O=C(O)CCCc1nc2cc(C(=O)NCc3cccc(Cl)c3)ccc2nc1-c1ccccc1 [compound 23, 7-[[[(3-chlorophenyl)methyl]amino]carbonyl]-3-phenyl-2-quinoxalinebutanoic acid]"
5,2.1 to 20,"O=C(O)CCOCc1nc2cc(C(=O)N3CCC(c4ccccc4)CC3)ccc2nc1-c1ccc(Cl)cc1 [compound 29, 3-((3-(4-chlorophenyl)-7-(4-phenylpiperidine-1-carbonyl)quinoxalin-2-yl)methoxy)propanoic acid]"
6,2.1 to 20,"O=C(O)C1CC(Cc2nc3cc(C(=O)N4CCC(c5ccccc5)CC4)ccc3nc2-c2ccc(Cl)cc2)C1 (centres unmarked) [compound 30, 3-((3-(4-chlorophenyl)-7-(4-phenylpiperidine-1-carbonyl)quinoxalin-2-yl)methyl)cyclobutanecarboxylic acid]"
7,2.1 to 20,"O=C(O)CCCCc1nc2cc(C(=O)N3CC(c4nc5ccccc5[nH]4)C3)ccc2nc1-c1ccc(F)cc1 [compound 31, 5-(7-(3-(1H-benzo[d]imidazol-2-yl)azetidine-1-carbonyl)-3-(4-fluorophenyl)quinoxalin-2-yl)pentanoic acid]"
8,2.1 to 20,"O=C(O)Cc1cccc(CCCc2nc3cc(C(=O)N4CCC(c5ccccc5)CC4)ccc3nc2-c2ccc(Cl)cc2)c1 [compound 32, 2-(3-(3-(3-(4-chlorophenyl)-7-(4-phenylpiperidine-1-carbonyl)quinoxalin-2-yl)propyl)phenyl)acetic acid]"
9,20.1 to 200,"C[C@@H](NC(=O)c1ccc2nc(-c3ccccc3)c(CCCC(F)(F)C(=O)O)nc2c1)c1ccc(F)cc1 [compound 37, (R)-2,2-difluoro-5-(7-((1-(4-fluorophenyl)ethyl)carbamoyl)-3-phenylquinoxalin-2-yl)pentanoic acid]"
10,2.1 to 20,"O=C(O)Cc1cc(F)cc(CCc2nc3cc(C(=O)N4CCC(c5ccccc5)CC4)ccc3nc2-c2ccc(Cl)cc2)c1 [compound 42, 2-(3-(2-(3-(4-chlorophenyl)-7-(4-phenylpiperidine-1-carbonyl)quinoxalin-2-yl)ethyl)-5-fluorophenyl)acetic acid]"
11,2.1 to 20,"O=C(O)CCCCc1nc2cc(C(=O)N3CCC(c4ccccc4)CC3)ccc2nc1-c1ccc(F)cc1 [compound 105, 3-(4-fluorophenyl)-7-[(4-phenyl-1-piperidinyl)carbonyl]-2-quinoxalinepentanoic acid]"
12,2.1 to 20,"O=C(O)CCCCc1nc2cc(C(=O)NCc3ccc(OC(F)(F)F)cc3)ccc2nc1-c1ccc(F)cc1 [compound 107, 3-(4-fluorophenyl)-7-[[[[4-(trifluoromethoxy)phenyl]methyl]amino]carbonyl]-2-quinoxalinepentanoic acid]"
13,2.1 to 20,"O=C(O)CCCCc1nc2cc(C(=O)NCc3cc(Cl)cc(Cl)c3)ccc2nc1-c1ccc(F)cc1 [compound 108, 7-[[[(3,5-dichlorophenyl)methyl]amino]carbonyl]-3-(4-fluorophenyl)-2-quinoxalinepentanoic acid]"

# The remaining lines, values behind:
row,SMILES,Ki [nM]
1,"CC(CCc1nc2cc(C(=O)N3CCC(c4ccccc4)CC3)ccc2nc1-c1ccc(Cl)cc1)CC(=O)O (stereo not drawn) [compound 17, 3-(4-chlorophenyl)-beta-methyl-7-[(4-phenyl-1-piperidinyl)carbonyl]-2-quinoxalinepentanoic acid]",2.1 to 20
2,"CC(CCCc1nc2cc(C(=O)N3CCC(c4ccccc4)CC3)ccc2nc1-c1ccc(C(F)(F)F)cc1)C(=O)O (stereo not drawn) [compound 18, alpha-methyl-7-[(4-phenyl-1-piperidinyl)carbonyl]-3-[4-(trifluoromethyl)phenyl]-2-quinoxalinepentanoic acid]",2.1 to 20
3,"O=C(O)CCCCc1nc2cc(C(=O)N3CC[C@@H](c4ccccc4)C3)c(F)cc2nc1-c1ccc(Cl)cc1 [compound 24, 3-(4-chlorophenyl)-6-fluoro-7-[(3(S)-phenyl-1-pyrrolidinyl)carbonyl]-2-quinoxalinepentanoic acid]",2.1 to 20
4,"O=C(O)CCCCc1nc2cc(S(=O)(=O)N3CCC(c4ccccc4)CC3)ccc2nc1-c1ccc(Cl)cc1 [compound 25, 5-(3-(4-chlorophenyl)-7-(4-phenylpiperidin-1-ylsulfonyl)quinoxalin-2-yl)pentanoic acid]",201 to 700
5,"O=C(O)CCCCc1nc2cc(C(=O)N3CCC(c4ccccc4)C3)ccc2nc1-c1ccc(C(F)(F)F)cc1 (centres unmarked) [compound 26, 5-(7-(3-Phenylpyrrolidine-1-carbonyl)-3-(4-(trifluoromethyl)phenyl)-quinoxalin-2-yl)pentanoic acid]",0.1 to 2
6,"O=C(O)CCCC(O)c1nc2cc(C(=O)N[C@@H]3CCCc4ccccc43)ccc2nc1-c1ccc(Cl)cc1 (stereo partly drawn) [compound 33, 5-(3-(4-chlorophenyl)-7-(((R)-1,2,3,4-tetrahydronaphthalen-1-yl)carbamoyl)quinoxalin-2-yl)-5-hydroxypentanoic acid]",20.1 to 200
7,"O=C(O)CCCC(=O)c1nc2cc(C(=O)N[C@@H]3CCCc4ccccc43)ccc2nc1-c1ccc(Cl)cc1 [compound 34, (R)-5-(3-(4-chlorophenyl)-7-((1,2,3,4-tetrahydronaphthalen-1-yl)carbamoyl)quinoxalin-2-yl)-5-oxopentanoic acid]",201 to 700
8,"O=C(O)CCCC(F)c1nc2cc(C(=O)N[C@@H]3CCCc4ccccc43)ccc2nc1-c1ccc(Cl)cc1 (stereo partly drawn) [compound 35, 5-(3-(4-chlorophenyl)-7-(((R)-1,2,3,4-tetrahydronaphthalen-1-yl)carbamoyl)quinoxalin-2-yl)-5-fluoropentanoic acid]",20.1 to 200
9,"C[C@@H](NC(=O)c1ccc2nc(-c3ccccc3)c(CCCC(=O)O)nc2c1)c1ccc(F)cc1 [compound 36, (R)-4-(7-((1-(4-fluorophenyl)ethyl)carbamoyl)-3-phenylquinoxalin-2-yl)butanoic acid]",701 to 2300
10,"C[C@@H]1CN(c2ccc(F)cc2)CCN1C(=O)c1ccc2nc(-c3ccccc3)c(CCCCC(=O)O)nc2c1 [compound 39, (R)-5-(7-(4-(4-fluorophenyl)-2-methylpiperazine-1-carbonyl)-3-phenylquinoxalin-2-yl)pentanoic acid]",2.1 to 20
11,"O=C(O)CCCCc1nc2cc(C(=O)N[C@@H]3CCCc4cc(F)ccc43)ccc2nc1-c1ccccc1 [compound 40, (R)-5-(7-((6-fluoro-1,2,3,4-tetrahydronaphthalen-1-yl)carbamoyl)-3-phenylquinoxalin-2-yl)pentanoic acid]",2.1 to 20
12,"C[C@@H]1CN(c2ccccc2)CCN1C(=O)c1ccc2nc(-c3ccccc3)c(CCCCC(=O)O)nc2c1 [compound 41, (R)-5-(7-(2-methyl-4-phenylpiperazine-1-carbonyl)-3-phenylquinoxalin-2-yl)pentanoic acid]",2.1 to 20
13,"C[C@@H]1CN(c2ccc(F)cc2)CCN1C(=O)c1ccc2nc(-c3ccccc3)c(NCCCC(=O)O)nc2c1 [compound 44, (R)-4-((7-(4-(4-fluorophenyl)-2-methylpiperazine-1-carbonyl)-3-phenylquinoxalin-2-yl)amino)butanoic acid]",2.1 to 20
14,O=C(O)CCCCc1nc2cc(C(=O)NCc3ccc(Cl)cc3)ccc2nc1-c1ccc(F)cc1 [compound 100],0.1 to 2
15,"O=C(O)CCCCc1nc2cc(C(=O)NCc3cccc(Cl)c3)ccc2nc1-c1ccc(F)cc1 [compound 101, 7-[[[(3-chlorophenyl)methyl]amino]carbonyl]-3-(4-fluorophenyl)-2-quinoxalinepentanoic acid]",2.1 to 20
16,"O=C(O)CCCCc1nc2cc(C(=O)N[C@@H](c3ccccc3)C(F)(F)F)ccc2nc1-c1ccc(F)cc1 [compound 102, 3-(4-fluorophenyl)-7-[[(2,2,2-trifluoro-1(S)-phenylethyl)amino]carbonyl]-2-quinoxalinepentanoic acid]",2.1 to 20
17,"O=C(O)CCCCc1nc2cc(C(=O)NC3Cc4ccccc4C3)ccc2nc1-c1ccc(F)cc1 [compound 103, 7-[[(2,3-dihydro-1H-inden-2-yl)amino]carbonyl]-3-(4-fluorophenyl)-2-quinoxalinepentanoic acid]",0.1 to 2
18,"N#Cc1ccc(CNC(=O)c2ccc3nc(-c4ccc(F)cc4)c(CCCCC(=O)O)nc3c2)cc1 [compound 104, 7-[[[(4-cyanophenyl)methyl]amino]carbonyl]-3-(4-fluorophenyl)-2-quinoxalinepentanoic acid]",2.1 to 20
19,"O=C(O)CCCCc1nc2cc(C(=O)N3CCC(c4ccccc4)C3)ccc2nc1-c1ccc(F)cc1 (centres unmarked) [compound 106, 3-(4-fluorophenyl)-7-[(3-phenyl-1-pyrrolidinyl)carbonyl]-2-quinoxalinepentanoic acid]",0.1 to 2

# Same assay, conditions: [3H]PGD2 binding, values in text
row,SMILES,Ki [nM]
1,"C[C@@H](NC(=O)c1ccc2nc(-c3ccccc3)c(CCCC(=O)O)nc2c1)c1ccc(F)cc1 [compound 36, (R)-4-(7-((1-(4-fluorophenyl)ethyl)carbamoyl)-3-phenylquinoxalin-2-yl)butanoic acid]",716
2,"C[C@@H]1CN(c2ccc(F)cc2)CCN1C(=O)c1ccc2nc(-c3ccccc3)c(CCCCC(=O)O)nc2c1 [compound 39, (R)-5-(7-(4-(4-fluorophenyl)-2-methylpiperazine-1-carbonyl)-3-phenylquinoxalin-2-yl)pentanoic acid]",8
3,"C[C@@H]1CN(c2ccccc2)CCN1C(=O)c1ccc2nc(-c3ccccc3)c(CCCCC(=O)O)nc2c1 [compound 41, (R)-5-(7-(2-methyl-4-phenylpiperazine-1-carbonyl)-3-phenylquinoxalin-2-yl)pentanoic acid]",8.8
